{"source": "patent US9127085B2", "about": "“Compositions of humanized notch fusion proteins and methods of treatment” (THE TRUSTEES OF COLUMBIA UNIVERSITY IN THE CITY OF NEW YORK, priority 2007, dated 2015)", "molecules": {"B1": {"name": "PlGF: a selective ligand for Flt1 (protein, UniProt P49763 19-221, looked up)", "Placenta growth factor": "LPAVPPQQWALSAGNGSSEVEVVPFQEVWGRSYCRALERLVDVVSEYPSEVEHMFSPSCVSLLRCTGCCGDENLHCVPVETANVTMQLLKIRSGDRPSYVELTFSQHVRCECRHSPGRQSPDMPGDFRADAPSFLPPRRSLPMLFRMEWGCALTGSQSAVWPSSPVPEEIPRMHPGRNGKKQQRKPLREKMKPERCGDAVPRR"}}, "key": {"C2C12 cells": {"system": "C2C12 cells", "test": "C2C12 myoblast differentiation", "type": "cell-based", "conditions": "C2C12 transduced with Foxo1-ADA", "procedure": "FIGS. 38A-38C These Figures show the quantitative analysis of C2C12 differentiation. […] Results from differentiation experiments were analyzed by scoring the number of Myosin-immunostained cells as percentage of all DAPI-positive cells. […] We carried out reporter gene assays using the canonical Foxo1-responsive Igfbp1 promoter (left panel) and the Hes1 promoter (right panel) in cells co-transfected with Foxo1-ADA or DBD-Foxo1ADA. […] An asterisk indicates P<0.01 by ANOVA.\nC2C12 cells were differentiated as described (3, 4). Foxo1-ADA, Notch1-IC, Jagged1, Csl and Notch decoy adenoviral and mammalian expression vectors have been described (36, 51). We generated retroviruses expressing Foxo1-ADA and Notch1-IC using the pQCXIH vector. To generate Notch decoy (pAdlox Notch1ECD-Fc), the extracellular domain of Notch1(bp 241-4229, GenBank accession# X57405) was fused in frame with human IgG Fc tag and cloned into pAdlox. Retroviral supernatant was produced from cells transiently co-transfected with pVSV-G vector and designated pQCXIH vector into GP2-293 cells (BD Bioscience). To generate the DNA binding-deficient Foxo1, we replaced N208 and H212 with alanine and arginine, respectively, using QuikChange Mutagenesis Kit (Stratagene). The mutations were then cloned in the backbone of the Foxo1-ADA mutant. […]"}, "[1]": {"system": "Ad-Notch4 transduced HUVEC", "test": "Endothelial co-culture morphogenesis assay (Notch4-induced extensions on fibrin gel)", "type": "cell-based, human", "conditions": "200 nM compound E vs vehicle", "procedure": "HUVEC morphogenesis was assessed as described (11), modified by adding co-culturing of Ad-Notch4 transduced HUVEC with Notch1 decoy- or Fc-HUVEC transfectants. Ad-GFP at 10 m.o.i. was co-transduced in HUVECs with Ad-LacZ or Ad-Notch4 at 30 m.o.i and 48 h later seeded on fibrin gels (24-well plates, 1.5×10^4 cells/well). Stable HUVEC-mock (HUVEC-X), HUVEC-Fc, or HUVEC-N1ECDFc transfectants were seeded at 1.35×10^5 cells/well, and vehicle or 200 nM compound E added 3 h later. Seven days later, HUVEC morphogenesis was calculated as the number of GFP-positive cells with processes compared to total GFP-positive cells/field."}, "Ad-N1IC-transduced HUVEC": {"system": "Ad-N1IC-transduced HUVEC", "test": "Notch (Ad-N1IC)-induced HUVEC budding", "type": "cell-based, human", "procedure": "HUVEC were transduced with either Ad-LacZ or Ad-N1IC at 40 MOI. FIGS. 23A-23C show the effect of inhibitors for receptor tyrosine kinases on Notch-induced HUVEC budding. FIG. 23A is a photograph of budding of Ad-N1IC-transduced HUVEC treated with PD166866, ZD1893 at 1 μM and SU5416 at 0.5 μM. […] FIGS. 23D-E show induction of Flt-1 expression in Ad-N1IC-transduced HUVEC. […] FIGS. 23F-G show promotion of Notch-induced HUVEC budding with PlGF stimulation. Ad-N1IC-transduced HUVEC were cultured on collagen gel with SFM, instead of complete medium, in the absence or presence of 50 ng/ml PlGF. […] FIGS. 23H-I show the effect of Flt-1 siRNA transfection on Flt1 expression. Ad-N1IC-transduced HUVEC were transfected with 200 pmol of either control (CT) or Flt-1 siRNA. […] Ad-N1IC-transduced HUVEC were transfected with either 100 or 200 pmol of siRNA and cultured on collagen gel for 2 days.\nEither Ad-LacZ or Ad-N1IC-HUVEC at a MOI of 40 pfu/cell were cultured on collagen gel for 5 days in the absence or presence of GM6001 at 50 μm.\nFor making collagen gels, an ice-cold solution of porcine type I collagen (Nitta gelatin, Tokyo, Japan) was mixed with 10×RPMI1640 medium and neutralization buffer at the ratio of 8:1:1. 400 μl aliquots of collagen gel were then added to 24-well plates and allowed to gel for at least 1 hour at 37° C. Following adenoviral infection (above), HUVEC was harvested and plated at 1.3×10^5 cells per well onto the top of the collagen gel in 24-well plates in 0.8 ml of EGM2 medium. HUVEC became nearly confluent 48 hours after plating. After seeding, medium was changed every 2 days for 1 week. Sprouting was observed and photographs taken after 8 days with an Olympus digital camera mounted to a microscope. For quantification of the number of sprouts, 5 fields per each well were randomly selected and sprouting was counted under microscopy in a blind manner by two investigators."}, "[2]": {"system": "Jagged1 and Dll1 expression in Mm5MT-FGF4 cells", "test": "Quantitative RT-PCR of Notch ligands in Mm5MT-FGF4 transfectants", "type": "cell-based, mouse", "conditions": "1 μm PD166866, 7 days", "procedure": "Mm5MT transfectants were cultured 7 days with vehicle or 1 μm PD166866 (inhibitor of FGF receptor-kinase), total RNA isolated (RNeasy mini-kit, Qiagen, Valencia, Calif.), and first-strand cDNA synthesized (SuperScript™ First-Strand Synthesis System, Invitrogen). Quantitative RT-PCR for β-actin, FGF4, Jagged1, Dll1, and Dll4 (SYBER Green PCR Master Mix, 7300 Real Time PCR; Applied Biosystems, Foster City, Calif.) was performed in triplicate and values normalized for β-actin. Values are shown for fold induction compared to controls (primer sequences available on request)."}, "[3]": {"system": "retinal neovascularization", "conditions": "intravitreal injection; hypoxic mouse model; cited from earlier work"}, "[4]": {"system": "VEGF induced retinal microvascular permeability and vasoconstriction", "conditions": "subcutaneous injection; diabetic rat model; cited from earlier work"}, "[5]": {"system": "CBF1 promoter activity in Ad-VEGF-infected HUVEC", "test": "VEGF-induced Notch signaling, CBF1 (CSL) promoter reporter in HUVEC", "type": "cell-based, human", "conditions": "SU5416 treatment of Ad-VEGF-transduced HUVEC", "procedure": "To determine VEGF-induced Notch signaling, HUVEC which were infected with adenovirus were used. HUVEC plated 1-day prior in 6 well plates at 8.0×10^5 were infected with either Ad-LacZ as control or Ad-VEGF at indicated m.o.i. in the presence or absence of Ad-N1ECD/Fc. Two days after infection, infected HUVEC were re-seeded into 24-well plate at 1.5×10^5 cell in triplicate and cultured for 24 hours, and then transfected with 12.5 ng pRL-SV40 (Promega) and 137.5 ng pGA981-6 using Effectene transfection reagent (Qiagen). Cells were harvested either 1 or 2 days post-transfection and luciferase activity was determined by using the Dual-Luciferase® Reporter Assay System (Promega).\nOne can measure Notch signaling function by measuring transcriptional activity of CBF1 promoter, which is activated by binding of Notch-IC to CBF1. We measured CBF1 promoter activity in HUVEC which was infected with adenovirus encoding VEGF-165 at different MOI (FIG. 6). Induction of CBF1 promoter was clearly detected in Ad-VEGF-infected HUVEC, compared to Ad-LacZ-infected cells in the MOI dependent manner. […] Thus VEGF induced Notch signaling activity."}, "[6]": {"conditions": "Ad-N1IC at 40 MOI, receptor tyrosine kinase inhibitors at 1 μM"}}, "note": "Entries after “also recorded” stand apart in the source; their conditions may differ.", "data": [{"molecule": "C[C@H](NC(=O)Cc1cc(F)cc(F)c1)C(=O)N[C@H]1N=C(c2ccccc2)c2ccccc2N(C)C1=O", "note": "[Compound E]", "values": [{"measurement": "rescue of Foxo1-ADA inhibition of myoblast differentiation", "setting": "C2C12 cells", "value": "also rescued Foxo1-ADA inhibition of myoblast differentiation"}, {"measurement": "Notch4-induced HUVEC extensions", "setting": "[1]; p<0.0001", "value": "clearly inhibited extensions"}, {"measurement": "Notch4-induced HUVEC extensions", "setting": "[1]; p<0.0001, listed as compound E", "value": "blocks Notch4-induced extensions"}]}, {"molecule": "CNC(=O)[C@H](Cc1c[nH]c2ccccc12)NC(=O)[C@@H](CC(=O)NO)CC(C)C", "note": "[GM6001]", "values": [{"measurement": "budding of Ad-N1IC-HUVEC", "setting": "Ad-N1IC-transduced HUVEC; GM6001 at 50 μm, 5 days, collagen and fibrin gel", "value": "clearly decreased budding of Ad-N1IC-HUVEC"}]}, {"molecule": "COc1cc(OC)cc(-c2cc3cnc(N)nc3nc2NC(=O)NC(C)(C)C)c1", "note": "[PD166866]", "values": [{"measurement": "budding of Ad-N1IC-HUVEC", "setting": "Ad-N1IC-transduced HUVEC; [6]", "value": "Neither PD166866 or ZD1893 affected budding"}, {"measurement": "FGF4-induced Jagged1 and Dll1 expression", "setting": "[2]", "value": "suppressed induction of both Jagged1 and Dll1; also recorded: reduction of Notch ligand expression"}]}, {"molecule": "Clc1ccc(Nc2nnc(Cc3ccncc3)c3ccccc23)cc1", "note": "[PTK/ZK]", "values": [{"measurement": "retinal neovascularization", "setting": "[3]", "value": "reduces retinal neovascularization"}]}, {"molecule": "Cc1cc(C)c(/C=C2\\C(=O)Nc3ccccc32)[nH]1", "note": "[SU5416]", "values": [{"measurement": "budding of Ad-N1IC-HUVEC", "setting": "Ad-N1IC-transduced HUVEC; [6]", "value": "clearly inhibited"}, {"measurement": "viability of Ad-N1IC-HUVEC (dose-dependency of SU5416)", "setting": "Ad-N1IC-transduced HUVEC; lower concentrations of SU5416", "value": "less reduction of viability at lower concentrations"}, {"measurement": "VEGF induced retinal microvascular permeability and vasoconstriction", "setting": "[4]", "value": "suppresses VEGF induced retinal microvascular permeability and vasoconstriction"}, {"measurement": "VEGF-induced CSL-luciferase reporter activity", "setting": "[5]", "value": "decreased VEGF-induced CSL-luciferase reporter activity"}]}, {"molecule": "B1", "values": [{"measurement": "increase in HUVEC buds containing multiple filopodia", "setting": "Ad-N1IC-transduced HUVEC; 50 ng/ml PlGF, SFM", "value": 250, "unit": "%"}, {"measurement": "increase in number of Ad-N1IC-HUVEC buds", "setting": "Ad-N1IC-transduced HUVEC; 50 ng/ml PlGF, SFM, compared to the absence of PlGF", "value": 150, "unit": "%"}]}]}
